This is an account of results in ChEMBL document CHEMBL3351421, “Novel styryl-indoles as small molecule inhibitors of 25-hydroxyvitamin D-24-hydroxylase (CYP24A1): Synthesis and biological evaluation” (Eur J Med Chem, 2014).

This test deals with T1, 1,25-dihydroxyvitamin D(3) 24-hydroxylase, mitochondrial (Homo sapiens, UniProt Q07973).
T1 sequence (Q07973 whole entry): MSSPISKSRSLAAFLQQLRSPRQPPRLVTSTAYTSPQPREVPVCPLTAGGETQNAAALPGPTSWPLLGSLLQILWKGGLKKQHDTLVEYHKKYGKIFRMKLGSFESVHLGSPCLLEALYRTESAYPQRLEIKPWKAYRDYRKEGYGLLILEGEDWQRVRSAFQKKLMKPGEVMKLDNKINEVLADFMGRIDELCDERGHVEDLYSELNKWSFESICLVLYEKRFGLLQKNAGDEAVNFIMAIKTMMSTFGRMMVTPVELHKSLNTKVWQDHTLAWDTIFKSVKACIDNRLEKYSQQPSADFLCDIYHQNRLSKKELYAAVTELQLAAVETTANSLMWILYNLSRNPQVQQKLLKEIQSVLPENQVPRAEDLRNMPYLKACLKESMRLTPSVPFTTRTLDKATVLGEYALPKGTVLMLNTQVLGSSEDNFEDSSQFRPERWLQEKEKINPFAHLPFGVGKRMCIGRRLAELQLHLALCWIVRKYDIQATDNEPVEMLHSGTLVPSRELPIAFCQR
Description: Inhibition of N-terminally MBP-fused human CYP24A1 by cell-free assay.
Take `C(=C\c1ccc2c(ccn2CCCn2ccnc2)c1)/c1ccccc1`: inhibition was half-maximal at 0.52 µM (IC50) and the Ki was found to be 37 nM.
The matching figures for `COc1cc(/C=C/c2cccc3c2ccn3CCCOS(=O)(=O)c2ccc(C)cc2)cc(OC)c1`: 16.9 µM and 1190 nM.
The matching figures for `C(=C\c1cccc2c1ccn2CCCn1ccnc1)/c1ccccc1`: 0.36 µM and 26 nM.
The corresponding values for `COc1cc(/C=C/c2cccc3c2ccn3CCCn2ccnc2)cc(OC)c1` are 0.44 µM and 31 nM.
Regarding `COc1cc(/C=C/c2cccc3c2ccn3CCCNS(=O)(=O)c2ccc(C)cc2)cc(OC)c1`, the IC50 came out at 10.4 µM and the Ki came to 730 nM.
The matching figures for `O=S(OCCCn1ccc2c(/C=C/c3ccccc3)cccc21)c1ccccc1` (stereo unspecified): 7.6 µM and 540 nM.
Take `COc1cc(/C=C/c2cccc3c2ccn3CCCCNS(=O)(=O)c2ccc(C)cc2)cc(OC)c1`: inhibition was half-maximal at 10.5 µM (IC50) and the Ki stood at 740 nM.
Turning to `COc1cc(/C=C/c2cccc3c2ccn3CCCCn2ccnc2)cc(OC)c1`, the IC50 stood at 0.19 µM and the Ki is 14 nM.
In turn, `Cc1ccc(S(=O)(=O)NCCCCn2ccc3c(/C=C/c4ccccc4)cccc32)cc1` yielded an IC50 of 3.3 µM and a Ki of 230 nM.
The matching figures for `C(=C\c1ccc2c(ccn2CCCCn2ccnc2)c1)/c1ccccc1`: 0.52 µM and 37 nM.
The matching figures for `Cc1ccc(S(=O)(=O)NCCCn2ccc3c(/C=C/c4ccccc4)cccc32)cc1`: 4.8 µM and 340 nM.
As for `C(=C\c1cccc2c1ccn2CCCCn1ccnc1)/c1ccccc1`, the IC50 stood at 0.2 µM and the Ki was 14 nM.
The corresponding values for `Cc1ccc(S(=O)(=O)OCCCn2ccc3c(/C=C/c4ccccc4)cccc32)cc1` are 9 µM and 640 nM.

The term IC50 denotes the concentration that gives 50% inhibition. A lower IC50 goes with greater potency. One may read the Ki as the equilibrium dissociation constant of an inhibitor or competing ligand from its target.
